We go through 53 compounds from article PMC7539012, “Hyperphosphorylated tau aggregation and cytotoxicity modulators screen identified prescription drugs linked to Alzheimer's disease and cognitive functions” (Scientific Reports, 2020).

Molecules are shown by their SMILES. Counter-ions that a name gives are not always drawn.

The first experiment deals with T1, 1N4R p-tau.
T1 construct: made in house; host or cells: E. coli (PIMAX system)
The experiment can be described thus: p-tau aggregation modulator screen of 1280-compound library (ThS fluorescence net change over 16 h).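 As to ThS net change: 30 µM compound with 6 µM p-tau over 16 h.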 Format: biochemical.
Details: not given
More on the design: key to PTAI>2SD: *: PTAI>2SD; key to PTAI>3SD: *: PTAI>3SD.
Take `COc1cc(NC(C)CCCN)c2ncccc2c1` (stereo not shown) [Primaquine diphosphate]: the ThS net change turned out to be 250. `CNNCc1ccc(C(=O)NC(C)C)cc1` [Procarbazine hydrochloride] had a ThS net change of 457. On the same count and under the same terms, the figure for `CC[N+](C)(CC)CCC[n+]1c(-c2ccccc2)c2cc(N)ccc2c2ccc(N)cc21.[I-].[I-]` [Propidium iodide] is 269. Same read-out and setting: the figure for `CC(C)c1cccc(C(C)C)c1O` [Propofol] is 400; for `C[C@@H]1O[C@@H](O[C@@H]2C=C3CC[C@@H]4[C@H](CC[C@]5(C)[C@@H](c6ccc(=O)oc6)CC[C@]45O)[C@@]3(C)CC2)[C@H](O)[C@H](O)[C@H]1O` [Proscillaridin A] it is 498.

Take `CCN(CC)CCCC(C)Nc1c2ccc(Cl)cc2nc2ccc(OC)cc12.Cl.Cl.O.O` (stereo not shown) [Quinacrine dihydrochloride hydrate]: the ThS net change stood at 203. On the same count and under the same terms, the value for `C=C[C@H]1CN2CC[C@H]1C[C@@H]2[C@@H](O)c1ccnc2ccc(OC)cc12.Cl.O` [Quinidine hydrochloride monohydrate] was 282. Turning to `O=C(c1ccc(OCCN2CCCCC2)cc1)c1c(-c2ccc(O)cc2)sc2cc(O)ccc12` [Raloxifene hydrochloride], the “PTAI>2SD” value was “*” and the ThS net change was determined as 133.

Still in this experiment, the particulars now being: 1280-compound library screen; ThS fluorescence net change over 16 h.
Compound `CCCNC(C)C(=O)Nc1ccccc1C` (stereo not shown) [Prilocaine hydrochloride] gave a ThS net change of 378. The same measure, in the same setting: the figure for `CCCC(C(=O)OCCN(CC)CC)(c1ccccc1)c1ccccc1` [Proadifen hydrochloride] is 390. `CCN(CC)CCNC(=O)c1ccc(N)cc1` [Procainamide hydrochloride] gave a ThS net change of 379.

In turn, `[H]/N=C(\N/C(=N/[H])Nc1ccc(Cl)cc1)NC(C)C` [Proguanil hydrochloride] displayed a ThS net change of 389. Still for that read-out and setting: the figure for `CC(C)NCC(O)c1ccc2ccccc2c1.Cl` (stereo not shown) [Pronethalol hydrochloride] is 411.

In the case of `CCCOc1ccc(C(=O)OCCN(CC)CC)cc1N` [Proparacaine hydrochloride], the ThS net change was determined as 392. For the compound `CCCOc1cc(N)ccc1C(=O)OCCN(CC)CC` [Propoxycaine hydrochloride], the ThS net change is reported as 403. On the same count and under the same terms, the figure for `CCCc1cc(C(N)=S)ccn1` [Prothionamide] is 412; for `CNCCCC1c2ccccc2C=Cc2ccccc21` [Protriptyline hydrochloride] it is 412; for `CCN1CCC[C@H]1CNC(=O)c1c(O)c(Cl)cc(Cl)c1OC` [Raclopride] it is 382.

For the compound `CNC(=C[N+](=O)[O-])NCCSCc1ccc(CN(C)C)o1` [Ranitidine hydrochloride], the ThS net change is given as 405.

Still in this experiment, the particulars now being: 1280-compound library screen; […].
For the compound `CC(C)C[C@H](CN)CC(=O)O` [Pregabalin], the ThS net change is recorded as 400. Same read-out and setting: the figure for `CC(Cc1ccccc1)NCCC(c1ccccc1)c1ccccc1` (stereo not shown) [Prenylamine lactate] is 401; for `CN(C)C(=O)Oc1ccc[n+](C)c1.[I-]` [Pyridostigmine iodide] it is 381; for `CCC1(CC)C(=O)C=CNC1=O` [Pyrithyldione] it is 404.

Staying with this experiment, now noted: flag: p-tau aggregation inhibitor, ThS net change more than 3 SD from mean.
With `Cc1cc(/C=C/c2ccc3cc(N(C)C)ccc3[n+]2C)c(C)n1-c1ccccc1` [Pyrvinium pamoate], the “PTAI>3SD” value is “*”.

The same experiment, now with this note: library screen, ThS fluorescence net change over 16 h with p-tau.
`CN(C)CCCN1c2ccccc2Sc2ccccc21` [Promazine hydrochloride] gave a ThS net change of 306.

Regarding `CCCNCC(O)COc1ccccc1C(=O)CCc1ccccc1` (stereo not shown) [Propafenone hydrochloride], the ThS net change is 317.

With `CN1CCCN=C1/C=C/c1cccs1.O=C(O)C(O)C(O)C(=O)O` [Pyrantel tartrate], the ThS net change was 312. Same read-out and setting: the value for `COc1ccc(CN(CCN(C)C)c2ccccn2)cc1` [Pyrilamine maleate] was 298. The same measure, in the same setting: the value for `Cc1cc(/C=C/c2ccc3cc(N(C)C)ccc3[n+]2C)c(C)n1-c1ccccc1` [Pyrvinium pamoate] was -379.

Staying with this experiment, now noted: p-tau aggregation modulator screen of 1280-compound library; ThS fluorescence net change.
Compound `CS(=O)(=O)O.OC(CCN1CCCCC1)(c1ccccc1)c1ccccc1` [Pridinol methanesulfonate salt] displayed a ThS net change of 350. Same read-out and setting: the figure for `CCC1(c2ccccc2)C(=O)NCNC1=O` [Primidone] is 346. `CCN(CC)CCOC(=O)c1ccc(N)cc1` [Procaine hydrochloride]: the ThS net change was 362. `CN1CCN(CCCN2c3ccccc3Sc3ccc(Cl)cc32)CC1` [Prochlorperazine dimaleate] had a ThS net change of 357. On the same count and under the same terms, the value for `OC(CCN1CCCC1)(c1ccccc1)C1CCCCC1` (stereo not shown) [Procyclidine hydrochloride] was 347. In turn, `CC(=O)[C@H]1CC[C@H]2[C@@H]3CCC4=CC(=O)CC[C@]4(C)[C@H]3CC[C@]12C` [Progesterone] gave a ThS net change of 336. Compound `CCCN(CCC)C(=O)C(CCC(=O)O)NC(=O)c1ccccc1` (stereo not shown) [Proglumide] came in with a ThS net change of 331. Same read-out and setting: the value for `CC(CN1c2ccccc2Sc2ccccc21)N(C)C` (stereo not shown) [Promethazine hydrochloride] was 330; that for `CC(C)[N+](C)(CCOC(=O)C1c2ccccc2Oc2ccccc21)C(C)C` [Propantheline bromide] was 373; that for `NC(=O)c1cnccn1` [Pyrazinamide] was 370. The compound `Cc1ncc(CO)c(CO)c1O` [Pyridoxine hydrochloride] registered a ThS net change of 354. Same read-out and setting: the value for `CCc1nc(N)nc(N)c1-c1ccc(Cl)cc1` [Pyrimethamine] was 354; that for `O=C(O)/C=C\C(=O)O.O=C(O)/C=C\C(=O)O.c1ccc2nc(N3CCNCC3)ccc2c1` [Quipazine dimaleate salt] was 377.

Staying with this experiment, now noted: p-tau aggregation modulator screen of the compound library, ThS fluorescence net change.
`CC(=O)[C@H]1CC[C@H]2[C@@H]3CC=C4C[C@@H](O)CC[C@]4(C)[C@H]3CC[C@]12C` [Pregnenolone] came in with a ThS net change of 482. In turn, `CCCN(CCC)S(=O)(=O)c1ccc(C(=O)O)cc1` [Probenecid] yielded a ThS net change of 416.

Regarding `CC(C)(Sc1cc(C(C)(C)C)c(O)c(C(C)(C)C)c1)Sc1cc(C(C)(C)C)c(O)c(C(C)(C)C)c1` [Probucol], the ThS net change came out at 414. Still for that read-out and setting: the value for `CCCc1cc(=O)[nH]c(=S)[nH]1` [Propylthiouracil] was 422; that for `OCCOCCN1CCN(C2=Nc3ccccc3Sc3ccccc32)CC1` [Quetiapine hemifumarate] was 424.

In the case of `CCOC(=O)[C@H](CCc1ccccc1)N[C@@H](C)C(=O)N1Cc2ccccc2C[C@H]1C(=O)O` [Quinapril HCl], the ThS net change worked out at 417.

`CCC1NC(=O)c2cc(S(N)(=O)=O)c(Cl)cc2N1` (stereo not shown) [Quinethazone]: the ThS net change was determined as 427. The compound `COCCCOc1ccnc(C[S+]([O-])c2nc3ccccc3[nH]2)c1C` (stereo not shown) [Rabeprazole Sodium salt] registered a ThS net change of 420.

In turn, `CC(=O)SCC(Cc1ccccc1)C(=O)NCC(=O)OCc1ccccc1` (stereo not shown) [Racecadotril] gave a ThS net change of 462. Still for that read-out and setting: the value for `CNCC(O)c1ccc(O)c(O)c1` (stereo not shown) [Racepinephrine HCl] was 453; that for `Cc1nc2ccc(CN(C)c3ccc(C(=O)N[C@@H](CCC(=O)O)C(=O)O)s3)cc2c(=O)[nH]1` [Raltitrexed] was 443; that for `CCOC(=O)[C@H](CCc1ccccc1)N[C@@H](C)C(=O)N1[C@H](C(=O)O)C[C@@H]2CCC[C@@H]21` [Ramipril] was 436.
